Assay results as given in patent US4199598A, “Method of treating noradrenaline dysfunction or for dopamine-β-hydroxylase inhibition” (Richter Gedeon Vegyeszeti Gyar Rt., priority 1976, dated 1980).

Legend:
dopamine-β-hydroxylase [1] = settings: in words, prior art; cited from earlier work
dopamine-β-hydroxylase [2] = assay: Noradrenaline, dopamine, serotonine and 5-hydroxy-indolylacetic acid contents of cerebrum (dopamine-β-hydroxylase inhibiting effect); assay type: in vivo, male Wister rats; settings: rats, i.p., 4 hours; for response vs control in vivo at 100 mg/kg / response vs control in vivo at 200 mg/kg: Rattus norvegicus, ip, ± Standard Error
Method: (§1) The dopamine-β-hydroxylase inhibiting effects of the compounds according to the invention were examined by the following tests:
(§2) The tests were performed on male Wister rats weighing 150 to 200 g. The dopamine-β-hydroxylase inhibiting effects of the compounds were evaluated by determining the change of noradrenaline, dopamine and adrenaline levels of the cerebrum, heart, spleen and adrenal gland. The serotonine and 5-hydroxy-indolyl-acetic acid levels of the cerebrum were also determined. The measurements were performed as follows:
(§3) The animals were decapitated, the cerebrum, heart, spleen and adrenal gland were removed quickly, and the organs were frozen by placing them onto a metal sheet cooled with dry ice. The frozen organs were stored for a maximum of one night at -20° C.
(§4) Noradrenaline was determined according to the method of Shellenberger et al (Anal. Biochem., Vol. 39, p. 356, 1971), with the following modifications of the basic procedure: 0.5 ml of 0.1 molar Na-K-phosphate buffer, containing 9 g/l of EDTA-Na2, were added to 0.5 ml of the eluate, and the catecholamines (noradrenaline in the examination of heart and spleen and noradrenaline and dopamine in the examination of the cerebrum) were oxidized with 0.1 ml of a 0.1 N iodine solution in 5% potassium iodide. […] Thereafter the samples were placed for 5 minutes in a drying oven heated to 100° C., and then the samples were cooled with ice water. The fluorescence of noradrenaline was measured with an OPTON spectrophotometer at wavelengths of 390 nm (excitation) and 490 nm (emission).
Determination of the noradrenaline, dopamine, serotonine and 5-hydroxy-indolylacetic acid contents of cerebrum
The brains were homogenized in 10 parts by volume of 0.4 N perchloric acid. The homogenized mixture was stored at -20° C. overnight; thereafter it was thawed and centrifuged as described above. A sample of homogenized mixture corresponding to 0.5 g of brain was removed, the pH of the sample was adjusted to 8.0±0.1 with 0.1 molar tris-buffer of the above composition, and the sample was processed as described above for the determination of the noradrenaline content of heart and spleen, with the difference that 1.5 ml of 0.05 N perchloric acid were applied as eluting agent. 0.5 ml of the eluate were applied to determine the noradrenaline and dopamine content. The measurement was performed as described above, with the difference that samples of 0.5 ml were applied for the recording of the fluorescence of noradrenaline. The residue was placed for 50 minutes into a drying oven heated to 100° C.; thereafter the sample was cooled with ice water, and the fluorescence of dopamine was recorded at wavelengths of 325 nm (excitation) and 380 nm (emission).
In a further test series the serotonine and 5-hydroxy-indolylacetic acid contents were also determined, in addition to the determination of the noradrenaline and dopamine contents, from the same sample. In this instance the brains were homogenized in 10 ml of 75% ethanol, 0.2 ml of EDTA-Na2 and 5% of ascorbic acid were added to the homogenized mixtures, and the homogenized mixtures were maintained at -20° C. overnight. The mixtures were then centrifuged as described above, and 5.0 ml samples of the supernatant were removed. The samples were diluted with equal volumes of distilled water, and poured onto ion-exchange columns of 0.5×1.5 cm dimensions, filled with buffered Amberlite CG-30 (200 to 400 mesh). The columns were washed with 5 ml of distilled water followed with 1.0 ml of 0.2 N hydrochloric acid, and the first effluent and the aqueous wash were collected for the determination of 5-hydroxy-indolylacetic acid. Elution was continued with further 1.2 ml of 0.2 N hydrochloric acid in order to remove noradrenaline, dopamine and serotonine. Samples of 0.3 ml were used for the determinations. […]

dopamine-β-hydroxylase [3] = assay: Noradrenaline content of heart (dopamine-β-hydroxylase inhibiting effect); assay type: in vivo, male Wister rats; settings: rats, i.p., 4 hours; for response vs control in vivo at 100 mg/kg / response vs control in vivo at 200 mg/kg: Rattus norvegicus, ip, ± Standard Error, read-out: Amine level, heart NA (noradrenaline)
Method: as §1, §2, §3
(§5) Determination of the noradrenaline content of heart and spleen
(§6) The organs were weighed in frozen state and then homogenized in 5.0 ml of 0.4 N perchloric acid containing 0.05% of EDTA-Na2 and 0.1% of Na2 S2 O5. The homogenized mixtures were centrifuged as described above for the treatment of adrenal gland, the supernatants were decanted, and the pH was adjusted to 8.0±0.1 with a 0.1 molar tris buffer containing 20 g/l of NaOH and 25 g/l of EDTA-Na2. 100 mg of prepared Al2 O3 (Anton et al: J. Pharm. Ther., Vol. 138, p. 360, 1962) were added to the samples, and the mixtures were shaken mechanically for 20 minutes. Thereafter the Al2 O3 were washed with 2.10 ml of distilled water, and the noradrenaline was eluted with 1.0 ml of 0.05 N perchloric acid. 0.5 ml samples of the eluate were applied for the determination of noradrenaline.
as §4
(§7) In the tests disulfiram, 2,2-dipyridyl, bis(1-methyl-4-homopiperazinyl-thiocarbonyl)-disulfide, sodium diethyldithiocarbamate and N-phenyl-N'-(2-thiazolyl)-thiourea were used as reference substances. The values indicated in Table 1 are percentages in relation to the amine levels of the controls measured in the same tests (± Standard Error). The statistical calculations were performed on a TPA/i type computer, using Student's test.

dopamine-β-hydroxylase [4] = assay: Noradrenaline content of spleen (dopamine-β-hydroxylase inhibiting effect); assay type: in vivo, male Wister rats; settings: rats, i.p., 4 hours; for response vs control in vivo at 100 mg/kg / response vs control in vivo at 200 mg/kg: Rattus norvegicus, ip, ± Standard Error, read-out: Amine level, spleen NA (noradrenaline)
Method: as §1, §2, §3, §5, §6, §4, §7

dopamine-β-hydroxylase [5] = assay: Adrenaline content of adrenal gland (dopamine-β-hydroxylase inhibiting effect); assay type: in vivo, male Wister rats; settings: rats, i.p., 4 hours; for response vs control in vivo at 100 mg/kg / response vs control in vivo at 200 mg/kg: Rattus norvegicus, ip, ± Standard Error, read-out: Amine level, adrenal gland AD (adrenaline)
Method: as §1, §2, §3
Determination of the adrenaline content of adrenal gland
The adrenal glands were freed from fat and homogenized in 3.0 ml of ice-cold 0.4 N perchloric acid. The homogenized mixtures were centrifuged for 10 minutes at 0° C. with a speed of 3200 r.p.m. on a Janetzky K-70 type centrifuge. 0.05 ml samples were taken from the supernatant, and the adrenaline level was determined directly by the method of Laverty et al (Anal. Biochem., Vol. 22, p. 269, 1968).
as §7

in vivo = settings: mouse, ip
Toxicity (LD50), rats = settings: rat, in vivo, ip
dopamine-β-hydroxylase [6] = settings: in vitro, in words, prior art; cited from earlier work
[7] = read-out: Amine level, cerebrum DA (dopamine)
[8] = read-out: Amine level, cerebrum NA (noradrenaline)
[9] = read-out: Amine level, cerebrum SE (serotonine)
[10] = read-out: Level, cerebrum 5-HIAA (5-hydroxy-indolylacetic acid)

SMILES	response vs control in vivo at 200 mg/kg (dopamine-β-hydroxylase [2]; [7]) [%]	response vs control in vivo at 200 mg/kg (dopamine-β-hydroxylase [2]; [8]) [%]	response vs control in vivo at 200 mg/kg (dopamine-β-hydroxylase [2]; [9]) [%]	response vs control in vivo at 200 mg/kg (dopamine-β-hydroxylase [2]; [10]) [%]	response vs control in vivo at 200 mg/kg (dopamine-β-hydroxylase [3]) [%]	response vs control in vivo at 200 mg/kg (dopamine-β-hydroxylase [4]) [%]	response vs control in vivo at 200 mg/kg (dopamine-β-hydroxylase [5]) [%]	LD50 (in vivo) [mg/kg]	other results
CN1CCCN(C(=S)SSC(=S)N2CCCN(C)CC2)CC1 [FLA-63, bis(1-methyl-4-homopiperazinyl)-thiocarbonyl-disulfide]	–	–	–	–	–	–	–	–	dopamine-β-hydroxylase inhibition in vivo (dopamine-β-hydroxylase [1]): one of the most potent dopamine-β-hydroxylase inhibitors in vivo
NC(CCCNC1=C(C(=S)S)CCC1)C(=O)O (stereo not shown) [Compound M-5, 2-[N-(4-carboxy-4-amino)-butyl]-amino-cyclopent-1-ene-dithiocarboxylicacid]	102 ± 1.8	69.3 ± 2.9	114 ± 3.6	141 ± 10	75 ± 10.6	67.1 ± 6.2	70.7 ± 3.3	~700	response vs control in vivo at 100 mg/kg (dopamine-β-hydroxylase [2]; [7]): 100 ± 4.8%; response vs control in vivo at 100 mg/kg (dopamine-β-hydroxylase [2]; [8]): 81.7 ± 4.5%; response vs control in vivo at 100 mg/kg (dopamine-β-hydroxylase [2]; [9]): 110 ± 4.1%; response vs control in vivo at 100 mg/kg (dopamine-β-hydroxylase [3]): 98.4 ± 5.4%; response vs control in vivo at 100 mg/kg (dopamine-β-hydroxylase [4]): 76.4 ± 11.1%; response vs control in vivo at 100 mg/kg (dopamine-β-hydroxylase [5]): 69.4 ± 4%
S=C(S)C1=C(NC2CCCCC2)CCC1 [Compound M-6, 2-(N-cyclohexyl)-amino-cyclopent-1-ene-dithiocarboxylic acid]	107 ± 5.6	40.7 ± 1.1	101 ± 5.1	150 ± 8.5	92.7 ± 6.5	98.1 ± 13.7	94.9 ± 3.4	> 1000	–
S=C(S)C1=C(Nc2ccccc2)CCC1 [Compound M-8, 2-(N-phenyl)-amino-cyclopent-1-ene-dithiocarboxylic acid]	97.3 ± 7.1	75.6 ± 4.6	102 ± 7.9	135 ± 10	99.9 ± 2.9	71.3 ± 12.8	88.4 ± 4.6	> 1000	–
c1ccc(-c2ccccn2)nc1 [2,2-D, 2,2-dipyridyl, reference compound]	–	–	–	–	–	–	–	–	Amine level, cerebrum DA (dopamine) (dopamine-β-hydroxylase [2]; 37.5 mg/kg): 116 percentages in relation to the controls; Amine level, cerebrum NA (noradrenaline) (dopamine-β-hydroxylase [2]; 37.5 mg/kg): 79.5 percentages in relation to the controls; Amine level, cerebrum DA (dopamine) (dopamine-β-hydroxylase [2]; 75 mg/kg): 95 percentages in relation to the controls; Amine level, cerebrum NA (noradrenaline) (dopamine-β-hydroxylase [2]; 75 mg/kg): 41.2 percentages in relation to the controls; Amine level, cerebrum SE (serotonine) (dopamine-β-hydroxylase [2]; 75 mg/kg): 100 percentages in relation to the controls; Amine level, heart NA (noradrenaline) (dopamine-β-hydroxylase [3]; 37.5 mg/kg): 104 percentages in relation to the controls; Amine level, heart NA (noradrenaline) (dopamine-β-hydroxylase [3]; 75 mg/kg): 58 percentages in relation to the controls; Amine level, spleen NA (noradrenaline) (dopamine-β-hydroxylase [4]; 37.5 mg/kg): 100 percentages in relation to the controls; Amine level, adrenal gland AD (adrenaline) (dopamine-β-hydroxylase [5]; 37.5 mg/kg): 80 percentages in relation to the controls; Amine level, adrenal gland AD (adrenaline) (dopamine-β-hydroxylase [5]; 75 mg/kg): 63 percentages in relation to the controls; LD50 (Toxicity (LD50), rats): 150 mg/kg; dopamine-β-hydroxylase inhibition in vitro (dopamine-β-hydroxylase [6]): effective under in vitro conditions
C=CCNC1=C(C(=S)S)CCC1 [Compound M-2, 2-(N-allyl)-amino-cyclopent-1-ene-dithiocarboxylic acid]	119 ± 7	71.1 ± 3.9	109 ± 5.9	–	123 ± 11.9	89.9 ± 11	71.9 ± 4.7	~500	response vs control in vivo at 100 mg/kg (dopamine-β-hydroxylase [2]; [7]): 108 ± 2.9%; response vs control in vivo at 100 mg/kg (dopamine-β-hydroxylase [2]; [8]): 78.6 ± 3.3%; response vs control in vivo at 100 mg/kg (dopamine-β-hydroxylase [2]; [9]): 118 ± 5.7%; response vs control in vivo at 100 mg/kg (dopamine-β-hydroxylase [3]): 81.3 ± 5.1%; response vs control in vivo at 100 mg/kg (dopamine-β-hydroxylase [4]): 74.5 ± 10.2%; response vs control in vivo at 100 mg/kg (dopamine-β-hydroxylase [5]): 103 ± 7.6%
NC(CCCCNC1=C(C(=S)S)CCC1)C(=O)O (stereo not shown) [Compound M-7, 2-[N-(5-carboxy-5-amino)-pentyl]-amino-cyclopent-1-ene-dithiocarboxylic ac id]	106 ± 7.2	65.8 ± 3	99.7 ± 6.8	153 ± 13	95.6 ± 8.5	85.3 ± 17.7	79.5 ± 6.5	~900	–
